Measurements reported in article PMC4669722, “Antitumour potential of BPT: a dual inhibitor of cdk4 and tubulin polymerization” (Cell Death & Disease, 2015).
“Also recorded” adds a separate entry of the source.

What was measured:
[1] = molecular target: Cdk7-cyclin H (Homo sapiens, UniProt P50613); assay: Kinase profiling (Millipore), Cdk7-cyclin H; assay type: biochemical
Description: (§1) The in vitro kinase assays for testing against Cdk4-cyclin D1, Cdk2-cyclin A, Cdk1-cyclin B1 and Cdk9-cyclin T1 were performed in-house. The methodology and results have been reported previously.[20], [30], [31], [32], [45] The kinase profiling for 58 representative kinases was carrried out commercially at Millipore Bioscience Division, Livingston, UK.

[2] = molecular target: Cdk6-cyclin D1 (Homo sapiens, UniProt Q00534); assay: Kinase profiling (Millipore), Cdk6-cyclin D1; assay type: biochemical
Cdk6-cyclin D1, sequence (P24385 whole entry): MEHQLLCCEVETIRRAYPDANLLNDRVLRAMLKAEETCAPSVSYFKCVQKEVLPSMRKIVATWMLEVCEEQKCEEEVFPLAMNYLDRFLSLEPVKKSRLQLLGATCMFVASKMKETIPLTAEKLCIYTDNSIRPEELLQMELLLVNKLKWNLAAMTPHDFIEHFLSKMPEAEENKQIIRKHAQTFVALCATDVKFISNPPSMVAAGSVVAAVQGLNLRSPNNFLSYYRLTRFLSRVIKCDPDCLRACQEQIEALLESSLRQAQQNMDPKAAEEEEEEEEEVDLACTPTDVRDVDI
Cdk6-cyclin D1, sequence (Q00534 whole entry): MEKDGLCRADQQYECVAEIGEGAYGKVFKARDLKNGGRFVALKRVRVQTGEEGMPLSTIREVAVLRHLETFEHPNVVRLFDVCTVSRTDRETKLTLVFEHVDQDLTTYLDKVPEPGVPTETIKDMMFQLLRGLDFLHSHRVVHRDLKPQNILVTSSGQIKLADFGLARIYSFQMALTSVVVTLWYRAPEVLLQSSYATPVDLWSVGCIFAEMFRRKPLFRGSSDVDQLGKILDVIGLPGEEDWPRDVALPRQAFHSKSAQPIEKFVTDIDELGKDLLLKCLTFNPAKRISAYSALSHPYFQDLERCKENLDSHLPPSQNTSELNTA
Description: as §1

[3] = molecular target: PKCα (Homo sapiens, UniProt P17252); assay: Kinase profiling (Millipore), PKCα; assay type: biochemical
Description: as §1

[4] = tested on: A549 cells; assay: Flow cytometric cell cycle analysis, A549; assay type: cell-based, human; conditions: 24 h
Description: (§2) The untreated (control) and treated (with test compounds) cells were harvested by trypsinization, washed once with PBS and then fixed in 70% chilled (−20 °C) ethanol for minimum 1 h. After the fixation step, cells were centrifuged for 5 min at 3000 × g at room temperature, and the pellet was suspended in PBS containing 50 μg/ml propidium iodide (Sigma-Aldrich, Dorset, UK; cat. no. P-4170) and 0.5 mg/ml DNase-free ribonuclease (Sigma-Aldrich; cat. no. R-5503). The cells were stained for 1 h in the dark at 4 °C. Cell cycle analysis was performed on the Beckman Coulter (Epics Altra) fluorescence-activated cell sorter (Beckman Coulter UK Ltd, Buckinghamshire, UK). To gate all the events that represent single cells, and not cell doublets or cell clumps, the following analyses were performed on the samples. Cytograms of propidium iodide fluorescence peak signal versus integrated fluorescence or the linear signal were plotted. All data points on the straight line were isolated in a single gate and the gated data was further used for plotting a histogram that represents a complete cell cycle. The total number of events was not allowed to exceed 200 events per s. Data acquisition was stopped after a minimum of 10 000 events had been collected.

[5] = tested on: NCI-H358 cells; assay: Flow cytometric cell cycle analysis, synchronized NCI-H358; assay type: cell-based, human; conditions: NCI-H358 after nocodazole block, released in presence of BPT, within 12 h
Description: as §2

[6] = tested on: pBluescript plasmid DNA; assay: EtBr displacement assay; assay type: binding; conditions: 1.3 μM EtBr, pH 7.4
Description: The assays were performed in a 96-well plate with clear bottom (Costar, Washington, DC, USA). The assay involved the addition of 10 μl of 10 × concentrated stock solution of compounds (dissolved in DMSO and further diluted in EtBr displacement assay buffer) to 90 μl of reaction mixture containing 6 μg of purified pBlueScript DNA and 1.3 μM EtBr in EtBr displacement assay buffer with final pH 7.4. Equivalent amounts of DMSO were added to the vehicle controls. In addition to control samples (DNA+EtBr), test samples (DNA+EtBr+test compounds), blank 1 (EtBr only), blank 2 (DNA only), wells containing DNA and compound were also prepared to test any change in the background fluorescence readings. The reduction in relative fluorescence counts was monitored ([…]) and recorded after 1 min equilibration time. Fascaplysin and actinomycin D, which are known to intercalate d-s DNA, were used as standard compounds in assay. The mean control and test readings were corrected by subtracting blank readings. The percentage fluorescence in the test samples in reaction with control samples was calculated by using following formula: […]

[7] = molecular target: Plk3 (Homo sapiens, UniProt Q9H4B4); assay: Kinase profiling (Millipore), Plk3; assay type: biochemical
Plk3, sequence (Q9H4B4 whole entry): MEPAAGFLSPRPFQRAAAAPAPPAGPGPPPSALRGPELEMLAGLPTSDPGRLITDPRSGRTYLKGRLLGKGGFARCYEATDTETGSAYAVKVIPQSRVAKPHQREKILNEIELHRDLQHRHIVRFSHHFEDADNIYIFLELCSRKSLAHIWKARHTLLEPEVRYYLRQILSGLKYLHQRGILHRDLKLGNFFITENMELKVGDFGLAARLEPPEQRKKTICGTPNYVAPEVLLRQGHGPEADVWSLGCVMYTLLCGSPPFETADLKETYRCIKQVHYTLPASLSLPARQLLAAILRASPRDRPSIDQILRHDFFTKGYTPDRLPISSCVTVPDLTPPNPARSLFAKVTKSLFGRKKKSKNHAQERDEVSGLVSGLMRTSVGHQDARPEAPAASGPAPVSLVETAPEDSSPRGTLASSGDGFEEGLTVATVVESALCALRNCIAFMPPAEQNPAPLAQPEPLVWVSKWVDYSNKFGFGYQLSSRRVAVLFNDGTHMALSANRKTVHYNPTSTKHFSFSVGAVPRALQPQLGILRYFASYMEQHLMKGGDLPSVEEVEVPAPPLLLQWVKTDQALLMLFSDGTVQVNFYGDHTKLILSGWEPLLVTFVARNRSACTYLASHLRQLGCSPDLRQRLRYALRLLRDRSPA
Description: as §1

[8] = tested on: NCI-H1299 (NSCLC; p53 null, pRb+); assay: Cell proliferation (MTT) assay, NCI-H1299; assay type: cell-based; conditions: Homo sapiens, 48 h, read-out: IC50 cell growth inhibition, NCI-H1299
Description: (§3) All 10 human cancer cell lines were maintained at 37 °C in 5% CO2 in RPMI-1640 medium, supplemented with 10% foetal calf serum and 100 μg/ml normocin. The 10 cancer cell lines used for screening were all obtained from ATCC (Manassas, VA, USA); they were the NSCLC (a form of cancer that is resistant to chemotherapy) lines: NCI-H460 (pRb^+, p53^+), A549 (pRb^+, p53^+), Calu-1 (pRb^+, p53-null), NCI-H1299 (pRb^+, p53-null), NCI-H358 (pRb-null, p53-null); the colon cancer line LS174T (pRb^+, p53^+); the prostate cancer line PC-3 (pRb^+, p53-null); the pancreatic cancer line MiaPaca (pRb^+, p53-mutant). The genotypes within brackets indicate the status of the tumour suppressor proteins pRb and p53. The mouse embryonic normal hepatic cell line (BNL CL2) and its SV40 large T-antigen-transformed counterpart cell line (BNL SV A.8) were also purchased from ATCC. The large T-antigen inactivates the tumour suppressor proteins p53 and pRb. The detailed procedure of cell proliferation (MTT) assay and IC50 determination was described previously.[32]

[9] = tested on: Calu-1 (NSCLC; p53 null, pRb+); assay: Cell proliferation (MTT) assay, Calu-1; assay type: cell-based, human
Description: as §3

[10] = molecular target: MAPK1 (Homo sapiens, UniProt P27361); assay: Kinase profiling (Millipore), MAPK1; assay type: biochemical
MAPK1, sequence (P27361 2-379 limits assumed): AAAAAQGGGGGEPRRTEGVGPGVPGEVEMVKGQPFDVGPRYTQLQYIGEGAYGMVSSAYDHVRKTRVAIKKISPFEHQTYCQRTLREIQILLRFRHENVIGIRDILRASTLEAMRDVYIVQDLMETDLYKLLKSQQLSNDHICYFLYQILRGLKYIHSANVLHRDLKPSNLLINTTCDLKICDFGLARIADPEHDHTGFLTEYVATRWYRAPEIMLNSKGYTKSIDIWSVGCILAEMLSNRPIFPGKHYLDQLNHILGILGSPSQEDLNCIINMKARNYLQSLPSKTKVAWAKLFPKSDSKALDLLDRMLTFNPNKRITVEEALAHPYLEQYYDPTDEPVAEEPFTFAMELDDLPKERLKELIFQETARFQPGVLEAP
Description: as §1

[11] = Body weight measurements in xenograft models; assay type: in vivo, SCID mice
Description: The body weights of animals in different treatment and control groups were monitored by taking the measurements daily during the treatment schedule. By considering the body weight at the start of the treatment as 100%, the percent weight loss was calculated on subsequent days of treatments.

[12] = molecular target: Cdk2-cyclin A (Homo sapiens, UniProt P24941); assay: In vitro kinase assay, Cdk2-cyclin A (in-house); assay type: biochemical; conditions: three independent experiments; read-out: IC50 (mean±S.D.), Cdk2-cyclin A
Description: as §1

[13] = molecular target: MEK1 (Homo sapiens, UniProt Q02750); assay: Kinase profiling (Millipore), MEK1; assay type: biochemical
MEK1, sequence (Q02750 whole entry): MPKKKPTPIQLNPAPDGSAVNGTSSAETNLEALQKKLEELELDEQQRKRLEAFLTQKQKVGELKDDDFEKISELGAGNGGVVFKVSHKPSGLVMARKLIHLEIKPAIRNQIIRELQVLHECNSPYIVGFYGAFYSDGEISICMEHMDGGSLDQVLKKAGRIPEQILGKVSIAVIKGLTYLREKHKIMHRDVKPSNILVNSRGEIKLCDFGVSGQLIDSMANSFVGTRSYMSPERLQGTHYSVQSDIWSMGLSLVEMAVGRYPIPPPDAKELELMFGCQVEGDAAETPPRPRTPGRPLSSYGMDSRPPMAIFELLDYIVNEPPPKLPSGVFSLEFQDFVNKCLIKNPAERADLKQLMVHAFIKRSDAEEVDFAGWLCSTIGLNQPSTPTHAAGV
Description: as §1

Cdk7-cyclin H, sequence (P50613 whole entry): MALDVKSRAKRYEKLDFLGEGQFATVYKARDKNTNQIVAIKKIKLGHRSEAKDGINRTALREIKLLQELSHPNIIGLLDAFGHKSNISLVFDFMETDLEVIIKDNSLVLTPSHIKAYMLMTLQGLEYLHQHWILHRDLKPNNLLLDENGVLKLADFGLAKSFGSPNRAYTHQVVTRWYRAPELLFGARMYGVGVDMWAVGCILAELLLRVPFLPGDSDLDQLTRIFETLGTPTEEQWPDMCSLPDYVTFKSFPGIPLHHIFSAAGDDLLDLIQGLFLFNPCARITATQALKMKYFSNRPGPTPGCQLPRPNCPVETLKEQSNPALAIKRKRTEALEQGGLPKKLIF
Cdk7-cyclin H, sequence (P51946 whole entry partner): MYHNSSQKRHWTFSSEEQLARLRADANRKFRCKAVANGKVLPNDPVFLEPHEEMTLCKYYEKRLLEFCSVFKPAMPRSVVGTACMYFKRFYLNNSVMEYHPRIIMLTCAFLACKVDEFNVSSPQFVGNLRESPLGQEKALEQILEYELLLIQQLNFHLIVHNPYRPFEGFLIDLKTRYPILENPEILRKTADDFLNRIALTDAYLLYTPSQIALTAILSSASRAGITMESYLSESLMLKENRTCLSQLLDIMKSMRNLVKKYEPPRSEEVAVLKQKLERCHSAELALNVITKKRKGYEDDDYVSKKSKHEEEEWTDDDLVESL
Cdk7-cyclin H, sequence (P51948 whole entry partner): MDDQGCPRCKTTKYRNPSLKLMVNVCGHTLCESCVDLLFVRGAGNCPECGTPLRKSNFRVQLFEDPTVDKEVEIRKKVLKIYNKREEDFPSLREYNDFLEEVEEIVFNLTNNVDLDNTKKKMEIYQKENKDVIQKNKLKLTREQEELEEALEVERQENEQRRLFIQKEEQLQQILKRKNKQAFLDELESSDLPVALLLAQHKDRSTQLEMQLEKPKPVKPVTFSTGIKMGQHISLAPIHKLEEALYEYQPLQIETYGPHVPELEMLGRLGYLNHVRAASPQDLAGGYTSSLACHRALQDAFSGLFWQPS

**Q.** What does the source list for `O=C(c1ccccc1-c1ccccc1)N1CCc2c([nH]c3ccccc23)C1` [BPT, 2-(biphenyl-2-carbonyl)-2,3,4,9-tetrahydro-1H-pyrido[3,4-b]indole]?
**A.** IC50 [1]: > 10 µM; IC50 [2]: > 10 µM; IC50 [3]: > 10 µM; cells in G2/M ([4]; A549, IC50 concentration): 82%; cells in G0/G1 ([4]; A549, IC70 concentration): 15%; cells in G2/M ([4]; A549, IC70 concentration): 59%; cells in Sub G1 (apoptotic) ([4]; A549, IC70 concentration): 13%; G0/G1- and S-phase cells entering the G2/M phase [5]: > 50%; EtBr displacement from DNA [6]: incapable of displacing; also recorded: does not displace ethidium bromide; also recorded: No EtBr displacement up to 100 μM ^a; IC50 [7]: > 10 µM; IC50 [8]: 0.9 µM; IC50 ([9]; Homo sapiens, Calu-1, 48 h, MTT, read-out: IC50 cell growth inhibition, Calu-1): 2.8 µM; resistance of Calu-1 cells to growth inhibition ([9]; relative to other cell lines): two- to three-fold; IC50 [10]: > 10 µM; weight loss of treated animals ([11]; SCID mice-HCT116 tumour model, 100 mpk, of starting weight): < 10%; weight loss of treated animals ([11]; both tumour models (HCT-116 and NCI-H460)): statistically insignificant weight loss; IC50 [12]: 831 ± 15.5 µM; IC50 [13]: > 10 µM
